The test deals with Neuronal acetylcholine receptor subunit alpha-7 (Homo sapiens, UniProt P36544). In words: Partial agonist activity at human alpha7 nAChR expressed in Xenopus laevis oocytes assessed as induction of maximum current response administered for 12 secs followed by washout period for 181 secs by voltage clamp technique.

The structures appear in SMILES notation.

Neuronal acetylcholine receptor subunit alpha-7, sequence (P36544 whole entry): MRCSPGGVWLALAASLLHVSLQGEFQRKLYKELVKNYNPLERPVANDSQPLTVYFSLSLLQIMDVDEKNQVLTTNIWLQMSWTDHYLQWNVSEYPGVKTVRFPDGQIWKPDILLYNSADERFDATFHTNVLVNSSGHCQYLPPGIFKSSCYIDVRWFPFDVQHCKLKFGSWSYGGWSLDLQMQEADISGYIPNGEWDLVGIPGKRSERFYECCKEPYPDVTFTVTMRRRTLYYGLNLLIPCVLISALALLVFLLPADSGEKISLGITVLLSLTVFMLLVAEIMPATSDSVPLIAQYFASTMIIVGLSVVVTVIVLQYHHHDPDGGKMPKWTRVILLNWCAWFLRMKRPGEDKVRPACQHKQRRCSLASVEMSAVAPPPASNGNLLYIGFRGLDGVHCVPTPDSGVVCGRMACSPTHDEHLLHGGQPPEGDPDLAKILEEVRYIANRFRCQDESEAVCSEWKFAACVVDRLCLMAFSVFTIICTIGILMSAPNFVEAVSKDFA

As to `CC[N+]1(CC)CCN(c2ccccc2)CC1`, the EC50 turned out to be 221 µM.

The term EC50 denotes the concentration at which the effect is half-maximal.

The record behind these values is BindingDB's records for doi:10.1021/acs.jmedchem.7b00875 (University of Florida, 2017).
